Experiments:
Assay in all cases: drug sensitivity score (DSS) (DSS (dimensionless)); higher = more sensitive (stronger drug response)
FIMM-PDC5 = patient-derived ovarian cancer cells; settings: genetic perturbation: none (patient-derived cell culture)
Method in brief: (§1)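 Ovarian cancer cell lines with shRNA induced by 100 ng/ml doxycycline for at least three days, along with patient-derived cultures, were seeded at 1 000 – 1 500 cells per well onto drugs pre-plated in 384-well plates at five concentrations over a 10,000-fold range and incubated for three days at 37 °C and 5.0 % CO2. CellTiter-Glo luminescence measured on a PHERAstar FS served as the viability readout, and each drug's dose-response curve was summarised as a drug sensitivity score following an earlier published method.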

FIMM-PDC3 = patient-derived ovarian cancer cells; settings: genetic perturbation: none (patient-derived cell culture)
Method in brief: as §1

JHOS2 = system: JHOS2
Method in brief: as §1

FIMM-PDC7 = patient-derived ovarian cancer cells; settings: genetic perturbation: none (patient-derived cell culture)
Method in brief: as §1

Kuramochi = system: Kuramochi
Method in brief: as §1

FIMM-PDC4 = patient-derived ovarian cancer cells; settings: genetic perturbation: none (patient-derived cell culture)
Method in brief: as §1

FIMM-PDC1 = patient-derived ovarian cancer cells; settings: genetic perturbation: none (patient-derived cell culture)
Method in brief: as §1

FIMM-PDC6 = patient-derived ovarian cancer cells; settings: genetic perturbation: none (patient-derived cell culture)
Method in brief: as §1

OVSAHO = system: OVSAHO
Method in brief: as §1

[1] = genetic perturbation: DOX-induced PTK7 shRNA knockdown
[2] = genetic perturbation: DOX-induced control shRNA

Compound	drug sensitivity score (FIMM-PDC5)	drug sensitivity score (FIMM-PDC3)	drug sensitivity score (JHOS2; [1])	drug sensitivity score (JHOS2; [2])	drug sensitivity score (FIMM-PDC7)	drug sensitivity score (Kuramochi; [1])	drug sensitivity score (Kuramochi; [2])	drug sensitivity score (FIMM-PDC4)	drug sensitivity score (FIMM-PDC1)	drug sensitivity score (FIMM-PDC6)	drug sensitivity score (OVSAHO; [1])	drug sensitivity score (OVSAHO; [2])
COc1ccc(S(=O)(=O)Nc2cccnc2Nc2ccc(O)cc2)cc1 [ABT-751]	11.8	9.7	10.2	6.3	6.8	7.95	3.6	9.6	8.8	5.1	7	5.4
CC(C)[C@H](C(=O)Nc1ccc(C(=O)NO)cc1)c1ccccc1 [AR-42]	10.9	10	9.1	8.5	9.8	12.8	6.6	5.8	9.25	10.5	12.4	9
Cc1sc2c(c1C)C(c1ccc(Cl)cc1)=N[C@@H](CC(=O)Nc1ccc(OCCOCCOCCOCCNc3cccc4c3C(=O)N(C3CCC(=O)NC3=O)C4=O)cc1)c1nnc(C)n1-2 (stereo partly drawn) [ARV-825]	8.9	3.2	10.2	8.1	8.7	8.3	10.5	8.2	0.6	6.7	9.7	9.1
COc1cc(N2CCC(N3CCN(C)CC3)CC2)ccc1Nc1ncnc(Nc2ccccc2S(=O)(=O)C(C)C)n1 [ASP3026]	7.7	5.5	5.7	5.1	3.4	4.5	3.2	8.1	3.85	5.3	5.3	4.5
O=C(NC1CCNCC1)c1n[nH]cc1NC(=O)c1c(Cl)cccc1Cl [AT7519]	20.5	13.6	14	14	18.2	15	7.7	16.3	14.1	20.5	17.2	14.5
O=C(Nc1c[nH]nc1-c1nc2ccc(CN3CCOCC3)cc2[nH]1)NC1CC1 [AT9283]	6.1	4.4	7.3	4.8	< 0	5.7	3.2	8.2	2.9	3.1	6.9	3.1
CC[C@H](CC#N)OC(=O)N[C@@H](C)c1cccc(NC(=O)Nc2ccc(-c3cnco3)c(OC)c2)c1 [AVN944]	18.1	12	5.8	9.6	10	9.7	8.9	7.4	7.65	6.6	11.7	9.7
Cc1[nH]nc(C(F)(F)F)c1Cc1sc2c(c1C(=O)N1C[C@](C)(O)CO1)c(=O)n(C)c(=O)n2C(C)C [AZD3965]	< 0	< 0	< 0	< 0	< 0	0.7	3.4	< 0	2.7	< 0	12.1	< 0
NC(=O)Nc1cc(-c2cccc(F)c2)sc1C(=O)N[C@H]1CCCNC1 [AZD7762]	7	9.1	7.6	4.6	5.8	6	2.9	8.1	7.75	6.4	6.4	3.1
COc1ccc(-c2ccc3c(N4CCOC[C@@H]4C)nc(N4CCOC[C@@H]4C)nc3n2)cc1CO [AZD8055]	29.2	12.9	11.8	17	25.7	15.9	16.8	21.2	13.9	21.8	20.7	19
Cc1ncc(-c2ccnc(Nc3ccc(S(C)(=O)=O)cc3)n2)n1C(C)C [AZD-5438]	12.8	7.3	14.4	8.3	7.6	7.55	7.8	9.5	7.9	9.3	8.2	7
CN(C)Cc1c(C(=O)NCCOc2ccc(C(=O)NO)cc2)oc2ccccc12 [Abexinostat]	16.2	13.3	14.4	13.3	11.7	18.5	8.6	8.7	12.7	14.3	14.6	11.9
CN(C)C/C=C/C(=O)Nc1cc2c(Nc3ccc(F)c(Cl)c3)ncnc2cc1O[C@H]1CCOC1 [Afatinib]	21.9	11	< 0	1.8	13.6	1.7	1.5	15.9	4.1	15.8	1.9	1.9
COc1cccc2c1C(=O)c1c(O)c3c(c(O)c1C2=O)C[C@@](O)(/C(CO)=N/NC(=O)CCCCCN1C(=O)C=CC1=O)C[C@@H]3O[C@H]1C[C@H](N)[C@H](O)[C@H](C)O1 [Aldoxorubicin]	6.6	7.4	7.9	7.4	8.4	5.45	4.9	8.5	5.7	7	7.9	5.1
COc1cc(Nc2ncc3c(n2)-c2ccc(Cl)cc2C(c2c(F)cccc2OC)=NC3)ccc1C(=O)O [Alisertib]	7.2	6.2	1.9	0.9	< 0	6.25	4.2	3.9	0.85	< 0	7	2.4
CN1CC[C@H](c2c(O)cc(O)c3c(=O)cc(-c4ccccc4Cl)oc23)[C@H](O)C1 [Alvocidib]	22.2	15.8	14.4	14.5	20.4	16.6	14.8	17.4	16.6	16.7	16.7	14.7
CCN(CC)CCNC(=O)c1c(C)[nH]c(/C=C2\C(=O)Nc3ccc(-c4csc(-c5ccccc5)n4)cc32)c1C [Amcasertib]	0.3	2.6	8.4	< 0	5.3	4.6	< 0	< 0	< 0	< 0	1.6	0.8

Compound	drug sensitivity score (FIMM-PDC5)	drug sensitivity score (FIMM-PDC3)	drug sensitivity score (JHOS2; [1])	drug sensitivity score (JHOS2; [2])	drug sensitivity score (FIMM-PDC7)	drug sensitivity score (Kuramochi; [1])	drug sensitivity score (Kuramochi; [2])	drug sensitivity score (FIMM-PDC4)	drug sensitivity score (FIMM-PDC1)	drug sensitivity score (FIMM-PDC6)	drug sensitivity score (OVSAHO; [1])	drug sensitivity score (OVSAHO; [2])
COc1cc(NS(C)(=O)=O)ccc1Nc1c2ccccc2nc2ccccc12 [Amsacrine]	5.8	6.3	3.3	4.4	4	1.25	1.4	5.1	4.55	3.9	5.3	< 0
O=C1CN2Cc3c(ccc(Cl)c3Cl)N=C2N1 [Anagrelide]	< 0	2.5	< 0	3.5	12	< 0	< 0	0.8	< 0	3.5	< 0	< 0
CC(=O)OC[C@H]1O[C@@H]([S-])[C@H](OC(C)=O)[C@@H](OC(C)=O)[C@@H]1OC(C)=O.CCP(CC)CC.[Au+] [Auranofin]	1.1	5.5	2.5	0.7	2.2	6.75	7.5	1.2	1.9	4	11	5.6
Nc1ncn([C@@H]2O[C@H](CO)[C@@H](O)[C@H]2O)c(=O)n1 [Azacitidine]	6.4	5.2	2.2	3.2	9.3	1.05	0.6	2.8	4.15	7.7	3.8	< 0
Cc1cc(-c2nc(-c3ccc(OC(F)(F)F)cc3)no2)nn1Cc1ccnc(N2CCN(C3CC3)CC2)c1 [BAY 87-2243]	< 0	0.9	1.3	< 0	< 0	5.7	< 0	1.5	< 0	8.3	< 0	3.5
CC[C@@H]1C(=O)N(C)c2cnc(Nc3ccc(C(=O)NC4CCN(C)CC4)cc3OC)nc2N1C1CCCC1 [BI 2536]	19.4	7.5	16	4.6	3.5	10.7	3	6.1	6.05	0.1	5.9	8.8
COc1c(C)cnc(Cn2cnc3c(Cl)nc(N)nc32)c1C [BIIB021]	18	12.1	16.5	12.6	14.6	10.4	0.9	18.8	12.8	13.5	< 0	8.1
O=C(Nc1cccc(Nc2ncc(Br)c(NCCc3cnc[nH]3)n2)c1)N1CCCC1 [BX-912]	6.9	1.2	5.5	2.4	9.2	2.35	3.7	3.9	2.85	2.2	3.8	2.2
O=C(/C=C/c1cccc(S(=O)(=O)Nc2ccccc2)c1)NO [Belinostat]	12.3	14.1	13	9.4	10	17.6	7.6	5.5	9.65	13	15.2	9.7
Cc1sc2c(c1C)C(c1ccc(Cl)cc1)=N[C@@H](CC(=O)Nc1ccc(O)cc1)c1nnc(C)n1-2 [Birabresib]	12.7	4.3	9.6	8.1	8.3	13.9	4.8	5.6	4.2	3.7	7.3	13.4
CC[C@H](NC(=O)[C@H](C)NC)C(=O)N1C[C@@H](O)C[C@H]1Cc1c(-c2[nH]c3cc(F)ccc3c2C[C@@H]2C[C@H](O)CN2C(=O)[C@H](CC)NC(=O)[C@H](C)NC)[nH]c2cc(F)ccc12 [Birinapant]	0.6	11.7	17.4	16.7	< 0	3.9	3.6	< 0	6.4	4.1	5.7	2.1
CC(C)C[C@H](NC(=O)[C@H](Cc1ccccc1)NC(=O)c1cnccn1)B(O)O [Bortezomib]	27.4	30.6	25.7	23.6	31.9	16.3	20.1	28.8	29.1	31.8	24.2	11.6
COc1cc(Nc2c(C#N)cnc3cc(OCCCN4CCN(C)CC4)c(OC)cc23)c(Cl)cc1Cl [Bosutinib]	14.3	10.5	9.3	10.9	6.5	10.6	6.4	13.7	7.4	12.3	12.1	8.7
Nc1cc(C(F)(F)F)c(-c2cc(N3CCOCC3)nc(N3CCOCC3)n2)cn1 [Buparlisib]	12.2	7.1	6.4	4.6	10.8	7.25	4.6	9.7	5.4	7.8	7.2	6.6
CCN1C(=O)CNc2ncc(-c3ccc(-c4nc[nH]n4)nc3C)nc21 [CC-115]	14	6.6	6.4	7.1	17.4	6.85	7.1	10	5.8	9.5	10	7.1
Cc1noc2c1-c1ccccc1C(c1ccc(Cl)cc1)=N[C@H]2CC(N)=O [CPI-0610]	8.7	3.7	5.9	4.2	5.5	10.5	6.1	3.9	2.1	3.1	7	9.5
CN(C)c1cc2c(cc1Sc1nc3c(N)nccc3n1CCNCC(C)(C)C)OCO2 [CUDC-305]	12.8	9.8	11.5	9.9	12.7	7.3	0.8	15.8	11.5	11.6	< 0	6.3

Source: the supplement of paper PMC9386025
